What was measured:
DIGSA [1] = test: Pre-emergence herbicidal action against DIGSA; type: in vivo, Digitaria sanguinalis; settings: Digitaria sanguinalis, 504 h
Procedure, shortened: (§1)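 Seeds sown in sandy loam, soil-covered; compound sprayed on soil surface pre-emergence. Application: WP/EC, 600–800 l/ha, 0.2% wetting agent. Readout: visual % damage at 3 weeks.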

STEME [2] = test: Pre-emergence herbicidal action against STEME; type: in vivo, Stellaria media; settings: Stellaria media, 504 h
Procedure, shortened: as §1

AVEFA = test: Post-emergence herbicidal action against AVEFA; type: in vivo, Avena fatua; settings: Avena fatua, 504 h, visual assessment about 3 weeks after treatment, 100% = plants have died, 0% = like control plants
Procedure, shortened: (§2)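 Sandy loam, greenhouse; treatment 2–3 weeks after sowing, one-leaf stage. Aqueous suspension or emulsion from WP/EC sprayed on foliage (600–800 l/ha, 0.2% wetting agent). Readout: visual % action, ~3 weeks.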

VIOTR = test: Pre-emergence herbicidal action against VIOTR; type: in vivo, Viola tricolor; settings: Viola tricolor, 504 h, dosage 320 g/ha
Procedure, shortened: as §1

MATIN = test: Pre-emergence herbicidal action against MATIN; type: in vivo, Matricaria inodora; settings: Tripleurospermum inodorum, 504 h
Procedure, shortened: as §1

HORMU = test: Pre-emergence herbicidal action against HORMU; type: in vivo, Hordeum murinum; settings: Hordeum murinum, 504 h; 320 g/ha, pre-emergence
Procedure, shortened: as §1

ABUTH [3] = test: Pre-emergence herbicidal action against ABUTH; type: in vivo, Abutilon theophrasti; settings: Abutilon theophrasti, 504 h
Procedure, shortened: as §1

STEME [4] = test: Post-emergence herbicidal action against STEME; type: in vivo, Stellaria media; settings: Stellaria media, 504 h
Procedure, shortened: as §2

ABUTH [5] = test: Post-emergence herbicidal action against ABUTH; type: in vivo, Abutilon theophrasti; settings: Abutilon theophrasti, 504 h, visual assessment about 3 weeks after treatment vs untreated controls
Procedure, shortened: as §2

ECHCG [6] = test: Post-emergence herbicidal action against ECHCG; type: in vivo, Echinochloa crus-galli; settings: Echinochloa crus-galli, 504 h
Procedure, shortened: as §2

AMARE [7] = test: Post-emergence herbicidal action against AMARE; type: in vivo, Amaranthus retroflexus; settings: Amaranthus retroflexus, 504 h, 80 g/ha, visual assessment about 3 weeks after treatment, 100% = plants have died, 0% = like control plants
Procedure, shortened: as §2

POLCO = test: Post-emergence herbicidal action against POLCO; type: in vivo, Polygonum convolvulus; settings: Fallopia convolvulus, 504 h, dosage 80 g/ha
Procedure, shortened: as §2

SETVI = test: Pre-emergence herbicidal action against SETVI; type: in vivo, Setaria viridis; settings: Setaria viridis, 504 h
Procedure, shortened: as §1

AMARE [8] = test: Pre-emergence herbicidal action against AMARE; type: in vivo, Amaranthus retroflexus; settings: Amaranthus retroflexus, 504 h, 100% = plants have died, 0% = like control plants
Procedure, shortened: as §1

DIGSA [9] = test: Post-emergence herbicidal action against DIGSA; type: in vivo, Digitaria sanguinalis; settings: Digitaria sanguinalis, 504 h
Procedure, shortened: as §2

ECHCG [10] = test: Pre-emergence herbicidal action against ECHCG; type: in vivo, Echinochloa crus-galli; settings: Echinochloa crus-galli, 504 h, 320 g/ha
Procedure, shortened: as §1

**Q.** Which pest or weed control at 80 g/ha (DIGSA [1]; dosage 80 g/ha) does the source give for `CNC(=O)c1c(C(F)(F)F)ccc(C(=O)Nc2nnc(C)o2)c1SC` [Example 6-58] here?
**A.** 100%

**Q.** And the pest or weed control at 320 g/ha (DIGSA [1]; dosage 320 g/ha)?
**A.** 100%

**Q.** And the pest or weed control at 80 g/ha (STEME [2]; dosage 80 g/ha)?
**A.** 90%

**Q.** And the pest or weed control at 320 g/ha (STEME [2]; dosage 320 g/ha)?
**A.** 90%

**Q.** What about the pest or weed control at 20 g/ha (AVEFA; 20 g/ha) of the same compound?
**A.** 80%

**Q.** What about the pest or weed control at 80 g/ha (AVEFA; 80 g/ha) of the same compound?
**A.** 90%

**Q.** What about the pest or weed control at 320 g/ha (VIOTR) of the same compound?
**A.** 90%

**Q.** And the pest or weed control at 80 g/ha (MATIN; dosage 80 g/ha)?
**A.** 80%

**Q.** And the pest or weed control at 320 g/ha (MATIN; dosage 320 g/ha)?
**A.** 100%

**Q.** What about the pest or weed control at 320 g/ha (HORMU) of the same compound?
**A.** 90%

**Q.** And the pest or weed control at 80 g/ha (ABUTH [3]; 80 g/ha, scored visually after 3 weeks vs untreated controls (100% = plants have died, 0% = like control plants))?
**A.** 100%

**Q.** And the pest or weed control at 320 g/ha (ABUTH [3]; Dosage: 320 g/ha, scored visually after 3 weeks, 100% = plants have died, 0% = like control plants)?
**A.** 100%

**Q.** What about the pest or weed control at 20 g/ha (STEME [4]; 20 g/ha) of the same compound?
**A.** 80%

**Q.** What about the pest or weed control at 80 g/ha (STEME [4]; 80 g/ha) of the same compound?
**A.** 80%

**Q.** And the pest or weed control at 20 g/ha (ABUTH [5]; dosage 20 g/ha)?
**A.** 80%

**Q.** And the pest or weed control at 80 g/ha (ABUTH [5]; dosage 80 g/ha)?
**A.** 80%

**Q.** And the pest or weed control at 20 g/ha (ECHCG [6]; dosage 20 g/ha)?
**A.** 90%

**Q.** What about the pest or weed control at 80 g/ha (ECHCG [6]; dosage 80 g/ha) of the same compound?
**A.** 90%

**Q.** What about the pest or weed control at 80 g/ha (AMARE [7]) of the same compound?
**A.** 90%

**Q.** And the pest or weed control at 80 g/ha (POLCO)?
**A.** 100%

**Q.** And the pest or weed control at 80 g/ha (SETVI; dosage 80 g/ha)?
**A.** 100%

**Q.** What about the pest or weed control at 320 g/ha (SETVI; dosage 320 g/ha) of the same compound?
**A.** 100%

**Q.** And the pest or weed control at 80 g/ha (AMARE [8]; 80 g/ha, scored visually after 3 weeks vs untreated controls)?
**A.** 100%

**Q.** And the pest or weed control at 320 g/ha (AMARE [8]; 320 g/ha, scored visually after 3 weeks)?
**A.** 100%

**Q.** What about the pest or weed control at 20 g/ha (DIGSA [9]; 20 g/ha) of the same compound?
**A.** 80%

**Q.** What about the pest or weed control at 80 g/ha (DIGSA [9]; 80 g/ha) of the same compound?
**A.** 90%

**Q.** And the pest or weed control at 320 g/ha (ECHCG [10])?
**A.** 100%

From patent US12655116B2, “Substituted isophthalic acid diamides” (Bayer Aktiengesellschaft, priority 2020, dated 2026)
